Converted amounts (≈) assume the structure as drawn. A value given as a limit tells only on which side of the number the result lay.

Data set [1] has as its system Pseudoperonospora cubensis. The experiment in a line: Antimicrobial activity against Pseudoperonospora cubensis infested in melons. The format is functional.
Data set [2] is described as follows: Acute toxicity in Pheretima sieboldi. The format is organism-based. The note with it: metaphire sieboldi, in vivo.
The nature of data set [3]: Acute toxicity in po dosed Rattus norvegicus (rat). The format is organism-based. The following applies: in vivo.
Data set [4] in a line: Toxicity in Cyprinidae (carp fish). The format is ADME, organism-based. The note with it: in vivo.
For data set [5], the system named is Selenastrum capricornutum. Nature of the data set: Toxicity in Selenastrum capricornutum. The class given is organism-based.
The test system of data set [6] is Phytophthora infestans. Nature of the data set: Antimicrobial activity against Phytophthora infestans infested in tomato plant. The format is functional.
Data set [7] relates to Apis mellifera. Nature of the data set: Acute toxicity in Apis mellifera (honey bee) compound administered topically. The following applies: in vivo, topical_or_ocular. The class given is organism-based.
Data set [8] in a line: Toxicity in Oncorhynchus mykiss (rainbow trout). The format is organism-based. The following applies: in vivo.
For another data set, the system named is Daphnia magna. The experiment in a line: Toxicity in Daphnia magna. The format is organism-based.
Data set [9] in a line: Solubility of the compound in water at pH 5 at 20 degC. The class given is physicochemical.
Data set [10] deals with Apis mellifera. The experiment in a line: Acute toxicity in po dosed Apis mellifera (honey bee). The format is organism-based. The following applies: in vivo.
In data set [11] the test system is Phytophthora infestans. The experiment in a line: Antimicrobial activity against Phytophthora infestans infested in potato plant. The class given is functional.
Data set [12] is described as follows: Acute toxicity in […] dosed Rattus norvegicus (rat). The class given is organism-based. The following applies: in vivo.
The next data set has as its system Plasmopara viticola. The experiment in a line: Antimicrobial activity against Plasmopara viticola infested in grapevines. The class given is functional.
A short description of data set [13]: Acute toxicity in po dosed Mus musculus (mouse). The format is organism-based. The note with it: in vivo.
Data set [14] has as its system Pseudoperonospora cubensis. The experiment in a line: Antimicrobial activity against Pseudoperonospora cubensis infested in cucumber plant. The class given is functional.
The nature of data set [15]: Acute toxicity in Rattus norvegicus (rat) administered through inhalation. The class given is organism-based. The note with it: in vivo, inhaled or intranasal.

One may read the NOAEL as the highest dose or exposure tested at which no adverse effect was seen. For orientation: LC50 means the concentration lethal to half of the exposed cells or organisms. Low values mean a more lethal substance, high ones a less lethal substance. Usually EC50 stands for the concentration that produces a half-maximal response. The term solubility denotes the dissolved amount per volume that the medium holds. As for `Cc1ccc(-c2c(Cl)nc(C#N)n2S(=O)(=O)N(C)C)cc1` [Cyazofamid], the Activity (in data set [1]; in the data set with Phytophthora infestans [6]; with Phytophthora infestans [11]; in the data set with Plasmopara viticola; in [14]) was 50 µg/mL in each case. The same compound gave an NOAEL in [2] of more than 1000 mg/kg. The LD50 in data set [3] is more than 5000 mg/kg; in the data set with Apis mellifera [7] it was more than 100 µg; in the data set with Apis mellifera [10], more than 151.7 µg; in data set [12], more than 2000 mg/kg; in data set [13], more than 5000 mg/kg. For the same compound, the LC50 in data set [4] is more than 69.6 mg/L; in [8] it was more than 100 mg/L; in data set [15], more than 5.5 mg/L. The EC50 in data set [5] was 0.858 mg/L (≈ 2.64 µM); with Daphnia magna, more than 0.198 mg/L. Further, in data set [9], the solubility worked out at 0.121 µg/mL (≈ 0.373 µM).

For the origin of these results see ChEMBL document CHEMBL3045528, “Development of a Novel Fungicide, Cyazofamid” (J Pestic Sci, 2004).
